Measured values from paper PMC2063203, “The renal effects of the water-soluble, non-folylpolyglutamate synthetase-dependent thymidylate synthase inhibitor ZD9331 in mice” (British Journal of Cancer, 1998).
“And” between values parts separate entries of the source, which are not always exact repeats. Equal values may be shown once. Read-outs that look alike come from different tables or passages of the source.

How the values were obtained:
[1] = Plasma pharmacokinetics of ZD9331 (HPLC, non-compartmental); format: in vivo, mice; conditions: for AUC(0-t): read-out: AUC0-8h; for concentration at 4 h: read-out: plasma drug concentration at 4 h; for Cmax / Tmax: mouse
Method: (§1) British Journal of Cancer (1998) 78(11), 1457-1463 ? […] In contrast to Tomudex (ZD1694), ZD9331 may therefore be active against tumours with low FPGS activity. […] In view of the history of renal toxicity with some earlier TS inhibitors and the possible therapeutic use of bolus ZD9331, we have examined the effects of bolus ZD9331 dose and route of administration on plasma and kidney pharmacokinetics and renal function in mice. Renal function was assessed by measuring [14C]inulin clearance, and drug concentrations were assayed by reverse-phase high-performance liquid chromatography (HPLC). […] Kidney drug concentrations were slightly elevated in iv.- versus i.p.-treated animals at the low dose (50 mg kg-'), with a correspondingly larger area under the curve. However, at the highest dose (200 mg kg-'), peak kidney drug concentrations were 20-fold higher following i.v. administration than after i.p., with marked kidney retention, resulting in a 50-fold greater kidney drug exposure for the i.v. versus the i.p. route. […] These adverse effects can be readily overcome by i.p. administration, indicating the likely need for short infusions in clinical settings. […] Early studies established that nephrotoxicity may be a result of poor aqueous solubility of 2-amino compounds such as CB3717, and it was shown that 2-desamino CB3717 was more water soluble and less nephrotoxic (Jones et al, 1989; 1996). […] These polyglutamate forms also exibit intra- cellular retention, which may contribute to toxicity as well as anti- tumour activity. […] Such compounds might be expected to show activity in a different spectrum of tumours from ZD1694 and to have a more manageable toxicity profile because of the lack of retained cyto- toxic metabolites. […] MATERIALS AND METHODS Drug administration and animals The compound ZD933 1 (Figure 1) was provided as a white crystalline salt. ['4C]inulin was provided as a carboxylic acid (Amersham, UK, 250 µCi in 5 ml, specific activity 6.6 mCi mmol-') and diluted to an activity of 5 µCi ml-' in phosphate-buffered saline (PBS). ZD9331 was dissolved in 0.05 M sodium bicarbonate, 1457 1458 Ml Walton et al ~~ N Ny~~~14COOHH 0 H IN H N CH ~~~~H , 4 H3C N3 H Figure 1 The chemical structure of ZD9331 adjusted to pH 9.0 and administered either i.v. via the tail vein or i.p. at 0.01 ml g-' mouse body weight. [14C]inulin was administered at 0.05 gCi g-' (i.e. 0.01 ml g-') i.v. via the tail vein. Adult female DBA-2 mice were obtained from OLAC (Bicester, UK) and used at 8-12 weeks of age at a body weight of 15-25 g. Mice were housed in cages containing untreated sawdust and allowed access to food and water ad libitum. Sample preparation Plasma and tissue samples were prepared using standard tech- niques (Walton et al, 1996). Briefly, whole blood was obtained by cardiac puncture into heparinized syringes from halothane- anaesthetized mice. Plasma was prepared by centrifugation at 12 000 r.p.m. x 2 min in a bench-top microcentrifuge. Kidney and liver tissues were rapidly removed, washed and snap frozen on dry ice. Frozen plasma and tissues were stored at -20?C for up to 4 weeks prior to analysis. Individual samples were thawed on ice and handled rapidly. ZD9331 was extracted from whole plasma or tissue homogenates (33% w/v in 0.1 M Tris, pH 10.0) by the addition of an equal volume of acetonitrile, mixing and centrifugation and the super- natant removed for injection into the HPLC system. Samples were diluted with Tris buffer (0.1 M, pH 10.0) on to the linear part of the calibration curve prior to HPLC analysis. Extraction efficiencies were >95%. HPLC analysis Concentrations of ZD9331 were measured in biological samples using reversed phase HPLC on equipment supplied by Kontron (Watford, UK). Separations were carried out using stainless-steel columns heated at 45?C and packed with C18 Supelcosil ODS (10 cm x 4.6 mm, 5 µm bead size, Sigma, Dorset) and protected with NewGuard C18 columns (Anachem, Luton, UK). […]

DBA-2 mice [2] = assay: Kidney histology (H & E) and immunohistochemical staining for ZD9331; format: in vivo
DBA-2 mice [3] = assay: Glomerular filtration rate (GFR) by [14C]inulin clearance after bolus drug; format: in vivo
Method: as §1

[4] = female, ip, plasma, DBA-2 mice, 50 mg kg-1 i.p.
[5] = female, ip, plasma, DBA-2 mice, 200 mg kg-1 i.p.
[6] = female, iv, plasma, DBA-2 mice, 50 mg kg-1 i.v. bolus
[7] = female, iv, plasma, DBA-2 mice, 100 mg kg-1 i.v. bolus
[8] = female, iv, plasma, DBA-2 mice, 200 mg kg-1 i.v. bolus

Structure (SMILES): C#CCN(Cc1cc2c(=O)[nH]c(C)nc2cc1C)c1ccc(C(=O)N[C@@H](CCc2nnn[nH]2)C(=O)O)c(F)c1 [ZD9331, (2S)-2-{O-fluoro-p-(N-(2,7-dimethyl-4-oxo-3,4-dihydroquinazolin-6-ylmethyl)-N-(prop-2-ynyl)amino}benzamido}-4-(tetrazol-5-yl)butyric acid]
- peak plasma concentration i.p. as % of i.v. ([1]; 50 mg kg-1): 11%
- peak plasma concentration i.p. as % of i.v. ([1]; 200 mg kg-1): 25%
- AUC(0-t) ([1]; female, DBA-2, mouse, plasma, ip, 50 mg/kg, plasma, DBA-2 mice, 50 mg kg-1 i.p.): 90.1 µM·h
- half-life ([1]; female, DBA-2, mouse, plasma, ip, 50 mg/kg, plasma, DBA-2 mice, 50 mg kg-1 i.p., read-out: t1/2): 93.4 min
- AUC(0-t) ([1]; female, DBA-2, mouse, plasma, ip, 200 mg/kg, plasma, DBA-2 mice, 200 mg kg-1 i.p.): 315 µM·h
- half-life ([1]; female, DBA-2, mouse, plasma, ip, 200 mg/kg, plasma, DBA-2 mice, 200 mg kg-1 i.p., read-out: t1/2): 99 min
- bioavailability ([1]; female, DBA-2, mouse, plasma, ip, 50 mg kg-1, read-out: i.p. bioavailability): 80%
- concentration at 4 h ([1]; female, DBA-2, mouse, plasma, ip, 50 mg kg-1 i.p.): 1000 nM
- concentration at 4 h ([1]; female, DBA-2, mouse, plasma, ip, 200 mg kg-1 i.p.): 1860 nM
- AUC(0-t) ([1]; female, DBA-2, mouse, plasma, iv, 50 mg/kg, plasma, DBA-2 mice, 50 mg kg-1 i.v. bolus): 75.3 µM·h
- half-life ([1]; female, DBA-2, mouse, plasma, iv, 50 mg/kg, plasma, DBA-2 mice, 50 mg kg-1 i.v. bolus, read-out: t1/2 (apparent terminal elimination)): 57 min
- AUC(0-t) ([1]; female, DBA-2, mouse, plasma, iv, 100 mg/kg, plasma, DBA-2 mice, 100 mg kg-1 i.v. bolus): 109 µM·h
- half-life ([1]; female, DBA-2, mouse, plasma, iv, 100 mg/kg, plasma, DBA-2 mice, 100 mg kg-1 i.v. bolus, read-out: t1/2): 91.7 min
- AUC(0-t) ([1]; female, DBA-2, mouse, plasma, iv, 200 mg/kg, plasma, DBA-2 mice, 200 mg kg-1 i.v. bolus): 332 µM·h
- half-life ([1]; female, DBA-2, mouse, plasma, iv, 200 mg/kg, plasma, DBA-2 mice, 200 mg kg-1 i.v. bolus, read-out: t1/2): 64.5 min
- concentration at 4 h ([1]; female, DBA-2, mouse, plasma, iv, 50 mg kg-1 i.v.): 1100 nM
- concentration at 2 min ([1]; female, DBA-2, mouse, plasma, iv, 100 mg kg-1 i.v., read-out: plasma drug concentration at 2 min): 898000 nM
- concentration at 5 min ([1]; female, DBA-2, mouse, plasma, iv, 100 mg kg-1 i.v., read-out: plasma drug concentration at 5 min): 771000 nM
- concentration at 4 h ([1]; female, DBA-2, mouse, plasma, iv, 200 mg kg-1 i.v.): 1300 nM
- Cmax [1, 4]: 74100 ng/mL and 139 µM
- Tmax [1, 4]: 10 min
- Cmax [1, 5]: 483000 ng/mL and 906 µM
- Tmax [1, 5]: 10 min
- Cmax [1, 6]: 696000 ng/mL and 1.31 mM
- Tmax [1, 6]: 1 min
- Cmax [1, 7]: 708000 ng/mL and 1.32 mM
- Tmax [1, 7]: 1 min
- Cmax [1, 8]: 1.9e+06 ng/mL and 3.63 mM
- Tmax [1, 8]: 1 min
- relation of plasma drug exposure (AUC) to dose ([1]; i.p., range 0-200 mg kg-1): linearly related to dose
- relation of plasma drug exposure (AUC) to dose ([1]; i.v., up to 200 mg kg-1): marked deviation from linearity at the highest dose
- peak plasma concentration ([1]; plasma, 50 mg kg-1 i.v.): 1.3 mM
- i.p. AUC0-8h as % of i.v. ([1]; plasma, 200 mg kg-1): 63%
- t1/2 (apparent terminal elimination) ([1]; plasma, DBA-2 mice, 50 mg kg-1 i.v. bolus): 57.7 min
- renal histology (DBA-2 mice [2]; 200 mg kg-1 i.v., 4 h after): evidence of tubular dilatation (Figure SB), with the presence of fine granular casts in the tubules
- drug distribution in kidney tissue (histology with immunohistochemical staining) (DBA-2 mice [2]; 200 mg kg-1 i.v., data not shown): uniform drug distribution in tissue with no evidence of drug precipitation
- renal histology (DBA-2 mice [2]; lower drug doses): some tubular dilatation
- effect on renal function (GFR) (DBA-2 mice [3]; 50 mg kg-1, 4 h after administration): minimal effects on renal function
- effect on GFR (DBA-2 mice [3]; 150 mg kg-1 i.p., 24 h after administration): no effect
- effect on GFR (DBA-2 mice [3]; 150 mg kg-1 i.v., 4 h after administration): slight decrease in GFR
- effect on GFR (DBA-2 mice [3]; 150 mg kg-1 i.v., 24 h after administration): no effect
- effect on GFR (DBA-2 mice [3]; 200 mg kg-1 i.p.): minimal
- effect on GFR (DBA-2 mice [3]; 200 mg kg-1 i.v., 4 h after administration): profound decrease in GFR
- effect on GFR (DBA-2 mice [3]; 200 mg kg-1 i.v., 24 h after administration): GFR inhibition was less profound
- nephrotoxicity (DBA-2 mice [3]; active anti-tumour dose, 50 mg kg-1 i.p., mice): non-nephrotoxic
- effect on renal function (GFR) (DBA-2 mice [3]; doses up to 150 mg kg-1 i.v. or i.p., 4 or 24 h post treatment): no evidence of compromised renal function
